Assay results reported in patent US5801260A, “Carbonothioate phospholipid analogs as substrate of phospholipases and lipases” (priority 1995, dated 1998).

Key:
[1] = molecular target: T1, cobra venom phospholipase A2 (Naja atra, UniProt P00598); assay: Inhibition of phospholipase A2 by a reversible inhibitor, carbonothioate assay; format: biochemical; settings: substrate 1-decanoyl-2-octylcarbonothioyl-sn-glycero-3-phosphocholine 0.5 mM, standard buffer with 4.24 mM Triton X-100; inhibitor 1 μM to 20 μM; FIG. 8
T1 construct: cobra venom phospholipase A2 (Naja naja atra); from tissue; host or cells: venom of Naja naja atra
Method: (§1) (b) Method: The desired amount of carbonothioate phospholipid in methylene chloride was evaporated to dryness under a stream of nitrogen. An appropriate volume of buffer A is added. This solution was sonicated in a bath sonicator to clearness. The assay was carried out at 40° C. A cuvette, containing 0.3 mL of assay mixture and 5 μL of DTNB was placed in the compartment of a spectrophotometer thermostated at 40° C. After equilibration of the substrate for 2 min at 40° C., a stable baseline was recorded for 150 sec. To initiate the reaction, cobra venom phospholipase A2 (Naja naja atra) (5 μL containing 125 ng protein in buffer B) was added to the cuvette and the reaction was recorded spectrophotometrically at 412 nm for 150 sec. The phospholipase activity is calculated using the extinction coefficient of 12,000 M^-1 cm^-1. Between each run, the cuvette is rinsed with Clorox, water and acetone.
Method: The appropriate volume of carbonothioate phospholipid in methylene chloride was dried under a stream of nitrogen. […] The enzymatic activity was determined similarly to Example 5 except that 500 ng enzyme was used.
A solution of 1-decanoyl-2-octylcarbonothioyl-sn-glycero-3-phosphocholine (1.0 mM) in buffer C was prepared as in Example 6. […] The enzymatic activity in the presence of the amide analog was determined as in Example 6.

[2] = molecular target: T1, cobra venom phospholipase A2; assay: Inactivation of phospholipase A2 by an irreversible inhibitor, carbonothioate assay of residual activity; format: biochemical; settings: enzyme preincubated with 100 μM inhibitor at 40° C.; substrate 1-decanoyl-2-octylcarbonothioyl-sn-glycero-3-phosphocholine 0.5 mM, 4.24 mM Triton X-100; FIG. 9
Method: as §1
Method: The appropriate volume of carbonothioate phospholipid in methylene chloride was dried under a stream of nitrogen. To prepare mixed micelles, the appropriate volume of buffer C was added, and the volume was brought to the final volume with buffer B. This solution was bath-sonicated to obtain a clear solution. The enzymatic activity was determined similarly to Example 5 except that 500 ng enzyme was used. […]

T1 sequence (P00598 28-146 limits assumed): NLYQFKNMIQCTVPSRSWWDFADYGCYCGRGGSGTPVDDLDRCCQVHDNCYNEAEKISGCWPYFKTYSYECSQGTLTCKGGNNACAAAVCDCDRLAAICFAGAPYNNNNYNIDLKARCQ

SMILES	inhibition of cobra venom phospholipase A2 as determined by the carbonothioate assay [1]	inhibition of cobra venom phospholipase A2 as followed by the carbonothioate assay [2]
CCCCCCCCCCCCCCCCSC[C@H](COP(=O)([O-])OCC[N+](C)(C)C)NC(=O)CCCCCCCCCCCCCCC [amide substrate analogs, 1-hexadecyl-thio-2-hexadecanoylamino-1,2-dideoxy-sn-glycero-3-phosphocholine]	inhibition	–
CCCCCCCCCC(=O)OCC(COP(=O)([O-])OCC[N+](C)(C)C)OC(=O)CC(C)(C)CC(=O)Oc1ccc([N+](=O)[O-])cc1 (centres unmarked) [irreversible inhibitor]	–	time-dependent inhibition
